Results as given in patent publication US11523998B2, “Anti-inflammatory formulations and uses thereof including a combination of palmitoylethanolamide and plant-based polyphenols” (The Texas A&M University System, priority 2018, dated 2022).

Assays:
[1] = system: interleukin-1 beta (II-1β); assay: Il-1β mRNA expression (RT-qPCR) in LPS-activated RAW 264.7 macrophages; format: cell-based, murine; conditions: for reduction of IL-1β mRNA expression: 1.0 mg/L alone; for reduction of IL-1β mRNA expression, alone at same molarity: around 3.4 μM (1.0 mg/L quercetin, 0.974 mg/L luteolin)
Method: RAW 264.7 murine macrophage cell line was purchased from American Type Culture Collection (ATCC-TIB71). Cells were cultured in high glucose Dulbecco's Modified Eagle Medium (DMEM) supplemented with stable glutamine (0.0584%) and sodium pyruvate (0.011%), 10% (v/v) heat-inactivated fetal bovine serum, and 1% (v/v) penicillin/streptomycin mix. Cells were maintained in an incubator at 37° C. with 5% CO2, and the medium was changed every two days. All assays were conducted in cells between the 3rd and the 15th passage. All treatments with PEA and other polyphenols were solubilized in dimethyl sulfoxide (DMSO) and further diluted in complete culture media immediately before use. LPS (10 ng mL-1) was used to induce inflammation in RAW 264.7 cultures.
Murine RAW 264.7 macrophage cells (1×10^5 cells per well) were seeded in 12-well plates and incubated for 24 hours. Cells were pre-treated with Palmitoylethanolamide (PEA) and other compounds of interest for 1 hour and then lipopolysaccharide (LPS), a major activating agent of macrophages, was added for a final concentration of 10 ng·mL-1. Cells were then incubated for 8 hours. Negative control (culture media only) and positive (LPS) controls, as well as a Vehicle (DMSO at a maximal concentration of 0.2%)+LPS were also performed. Total RNA was extracted and purified using an RNeasy mini kit (QIAGEN, Venlo, Netherlands) according to the manufacturer's protocol. mRNA quality and quantification were assessed with NanoDrop® ND-1000 (NanoDrop Technologies, Wilmington, Del., USA). cDNA synthesis was performed with the iScript Reverse Transcription Supermix (Bio-Rad Laboratories, Hercules, Calif., USA) according to the manufacturer's protocol. RT-qPCR reactions were performed using iTaq Universal Probes Supermix (Bio-Rad Laboratories, Hercules, Calif., USA). mRNA expression cyclooxygenase-2 (Cox-2) and interleukin-1 beta (II-1β) were analyzed using beta-actin (Actb) as a reference gene. The levels of transcripts were calculated relative to the control group by the 2-ΔΔCt method.
(§1) All data were analyzed by one-way analysis of variance (ANOVA) with Dunnet's or Sidak's posttest using GraphPad Prism 6.0 (GraphPad Software, La Jolla, Calif., USA).

cyclooxygenase-2 (Cox-2) = assay: Cox-2 mRNA expression (RT-qPCR) in LPS-activated RAW 264.7 macrophages; format: cell-based, murine; conditions: LPS 10 ng/mL; for downregulation of Cox-2 mRNA expression, compound alone: 9 h
Method: Cells were maintained in an incubator at 37° C. with 5% CO2, and the medium was changed every two days. All assays were conducted in cells between the 3rd and the 15th passage. All treatments with PEA and other polyphenols were solubilized in dimethyl sulfoxide (DMSO) and further diluted in complete culture media immediately before use.
Cells were pre-treated with Palmitoylethanolamide (PEA) and other compounds of interest for 1 hour and then lipopolysaccharide (LPS), a major activating agent of macrophages, was added for a final concentration of 10 ng·mL-1. Cells were then incubated for 8 hours. Negative control (culture media only) and positive (LPS) controls, as well as a Vehicle (DMSO at a maximal concentration of 0.2%)+LPS were also performed. Total RNA was extracted and purified using an RNeasy mini kit (QIAGEN, Venlo, Netherlands) according to the manufacturer's protocol. mRNA quality and quantification were assessed with NanoDrop® ND-1000 (NanoDrop Technologies, Wilmington, Del., USA). cDNA synthesis was performed with the iScript Reverse Transcription Supermix (Bio-Rad Laboratories, Hercules, Calif., USA) according to the manufacturer's protocol. RT-qPCR reactions were performed using iTaq Universal Probes Supermix (Bio-Rad Laboratories, Hercules, Calif., USA). mRNA expression cyclooxygenase-2 (Cox-2) and interleukin-1 beta (II-1β) were analyzed using beta-actin (Actb) as a reference gene. The levels of transcripts were calculated relative to the control group by the 2-ΔΔCt method.
as §1

In the case of `CCCCCCCCCCCCCCCC(=O)NCCO` [PEA, N-(2-Hydroxyethyl)hexadecanamide], the “reduction of II-1β expression” value ([1]; 0.5 mg/L alone, LPS 10 ng/mL) is reported as 28%, the “expression of the inflammatory cytokine II-1β” value ([1]; PEA 2.0 mg/L, after 1.0-10 ng/mL LPS) is reported as “significantly decrease” and the “lowest effective concentration of compound alone (II-1β expression)” value (“lowest effective concentration” below) ([1]; LPS 10 ng/mL, 9 h) is reported as 0.5 mg/L. The “expression of Cox-2” value (cyclooxygenase-2 (Cox-2); PEA 2.0 mg/L) was “significantly decrease”.
With `COc1cc(CNC(=O)CCCC/C=C/C(C)C)ccc1O` [capsaicin] the “expression of IL-1β, compound alone (screening)” value ([1]; alone, LPS 10 ng/mL, 9 h) was “significant reduction” and the “expression of IL-1β, in combination with PEA (screening)” value ([1]; in combination with PEA, LPS 10 ng/mL, 9 h) was “significant reduction”.
`COc1cc(/C=C/C(=O)CC(=O)/C=C/c2ccc(O)c(OC)c2)ccc1O` [curcumin] was tested, and the “reduction of IL-1β mRNA expression” value ([1]; LPS 10 ng/mL) was about 57% and the “lowest effective concentration” value ([1]; LPS 10 ng/mL, 9 h) was 1.0 mg/L.
`CC(C)Cc1ccc(C(C)C(=O)O)cc1` (centres unmarked) [ibuprofen] was tested, and the “inflammatory state of the cells (II-1β and Cox-2 expression, screening)” value ([1]; tested concentration, LPS 10 ng/mL, 9 h) was “did not improve the inflammatory state of the cells”.
`O=c1cc(-c2ccc(O)c(O)c2)oc2cc(O)cc(O)c12` [luteolin] was tested, and the “reduction of IL-1β mRNA expression, alone at same molarity” value ([1]; alone, 9 h) was 50%.
`O=c1c(O)c(-c2ccc(O)c(O)c2)oc2cc(O)cc(O)c12` [quercetin] was tested, and the “reduction of IL-1β mRNA expression” value ([1]; LPS 10 ng/mL) was “around 45%”, the “reduction of IL-1β mRNA expression, alone at same molarity” value ([1]; alone, 9 h) was 78% and the “lowest effective concentration” value ([1]; LPS 10 ng/mL, 9 h) was 1.0 mg/L.
For `Oc1ccc(C=Cc2cc(O)cc(O)c2)cc1` [resveratrol], the “downregulation of II-1β mRNA expression, compound alone” value ([1]; alone, LPS 10 ng/mL, 9 h) was “did not reduce”, the “downregulation of II-1β mRNA expression, compound alone” value ([1]; alone, LPS 10 ng/mL, 9 h, listed as Resveratrol) was “no downregulation” and the “downregulation of Cox-2 mRNA expression, compound alone” value (cyclooxygenase-2 (Cox-2)) was “did not reduce”. The “downregulation of Cox-2 mRNA expression, compound alone” value (cyclooxygenase-2 (Cox-2); listed as Resveratrol) was “no downregulation”.
